Experimental data taken from patent US20250214947A1, “3,4-DIHYDROQUINOXALINE-2-CARBOXIMIDE DERIVATIVE COMPOUND AND PHARMACEUTICAL COMPOSITION COMPRISING SAME FOR PREVENTING OR TREATING CANCER DISEASE” (Cureverse Incorporated, priority 2022, published 2025).

Key:
[1] = target: HDAC3 (Homo sapiens, UniProt O15379); test: Selective inhibitory effect, HDAC Fluorogenic assay kit, HDAC3; conditions: read-out: HDAC3 enzyme activity (%)
Experimental: (§2) For analysis, HDAC substrate 3 was diluted in buffer to a concentration of 200 μM and used in HDAC 1, 2, 3, 6, and 10 assays, HDAC substrate 2A was diluted in buffer to a concentration of 200 μM and used in HDAC 4, 7, 9, and 11 assays, HDAC substrate 2A was diluted in buffer to a concentration of 20 μM and used in HDAC 8 assays. For the HDAC 11 assay, a dedicated buffer included in the kit was used separately, and the same buffer was used for the remaining assays. The compound of the Example was diluted to 1 mM (1% DMSO concentration) using DMSO to obtain a final concentration of 10 μM, and prepared by diluting 1/10 with assay buffer. In a 96-well black round-bottom plate, 5 μL of the diluted compound of the Example, 5 μL of the diluted HDAC substrate, 5 μL of BSA (1 mg/ml), 5 μL of the HDAC enzyme diluted to the appropriate concentration, and 30 μL of assay buffer were added, and the enzyme reaction was performed at 37° C. for 30 minutes. […] Afterwards, 50 μL of 2×HDAC developer was added to each well. After reacting for 15 minutes at room temperature, the fluorescence values at excitation wavelengths of 350-380 nm and emission wavelengths of 440-460 nm were measured using a microplate reader (Synergy Neo).

[2] = target: HDAC1 (Homo sapiens, UniProt Q13547); test: Selective inhibitory effect, HDAC Fluorogenic assay kit, HDAC1; conditions: read-out: HDAC1 enzyme activity (%)
Experimental: as §2

[3] = target: T1, HDAC8 (Homo sapiens, UniProt Q9BY41); test: Selective inhibitory effect, HDAC Fluorogenic assay kit, HDAC8; format: biochemical; conditions: versus HDAC1, 2, 3, 4, 6, 7, 9, 10, 11; 10 μM
T1 construct: purchased BPS bioscience
T1 sequence (Q9BY41 1-377): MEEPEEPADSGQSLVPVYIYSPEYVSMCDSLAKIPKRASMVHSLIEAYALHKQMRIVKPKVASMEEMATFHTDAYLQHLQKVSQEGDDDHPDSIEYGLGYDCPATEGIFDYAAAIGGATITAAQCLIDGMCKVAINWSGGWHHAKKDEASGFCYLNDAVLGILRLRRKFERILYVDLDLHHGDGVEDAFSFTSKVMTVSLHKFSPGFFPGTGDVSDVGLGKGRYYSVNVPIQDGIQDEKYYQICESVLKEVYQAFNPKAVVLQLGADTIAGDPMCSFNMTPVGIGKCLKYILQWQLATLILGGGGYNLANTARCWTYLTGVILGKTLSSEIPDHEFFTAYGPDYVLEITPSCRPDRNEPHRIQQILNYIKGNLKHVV
Experimental: as §2

[4] = Body weight of mice during drug administration, liver cancer model; format: in vivo, nude mice; conditions: 50 mg/kg once a day; drug administration period; FIG. 7D
Experimental: (§1) In addition, a liver cancer model was established by subcutaneously transplanting Huh-7 cell lines into nude mice. After establishing the liver cancer model, the mice were divided into two groups (group 1: vehicle administration group, group 2: 50 mg/kg Example 27 compound administration group). The drug was administered once a day for 12 times. To evaluate therapeutic efficacy, tumor volume was measured before drug administration and on days 4, 7, 10, 13, and 15 after drug administration. Tumor volume (mm^3) was calculated as follows (tumor volume (mm^3)=(A×B^2)/2, where A=tumor long axis, B=tumor short axis). Body weight was measured before administration and on days 4, 7, 10, 13, and 15 after drug administration during the drug administration period. Tumor was excised on day 15 after drug treatment and body weight was measured.

[5] = test system: Huh-7 cell lines; test: Liver cancer model, Huh-7 cell lines subcutaneously transplanted into nude mice; format: in vivo; conditions: 50 mg/kg once a day
Experimental: as §1

[6] = test system: Liver cancer cells Huh-7; test: Liver cancer cell growth inhibition, CellTiter-Glo Luminescent Cell Viability Assay; format: cell-based; conditions: various concentrations; day 1; FIG. 6
Experimental: In addition, an analysis of liver cancer growth inhibitory activity was performed. Liver cancer cells Huh-7 cells were dispensed in a 96-well plate at 1×10^4 cells/ml, and after 20 hours, PCI34051, Example 27, and Example 35 were added at various concentrations, and cultured for 24 and 48 hours at 37° C. in a 5% CO2 atmosphere. After culturing, 100 l CellTiter-Glo Luminescent Cell Viability Assay reagent was added and the luminescence signal was measured after 0.5-1 hour. The luminescence signal was measured using IVIS [PerkinElmer, (Waltham, USA)].

[7] = target: HDAC2 (Homo sapiens, UniProt Q92769); test: Selective inhibitory effect, HDAC Fluorogenic assay kit, HDAC2; conditions: read-out: HDAC2 enzyme activity (%)
Experimental: as §2

[8] = target: T2, HDAC10 (Homo sapiens, UniProt Q969S8); test: Selective inhibitory effect, HDAC Fluorogenic assay kit, HDAC10; conditions: read-out: HDAC10 enzyme activity (%)
T2 sequence (Q969S8 1-669): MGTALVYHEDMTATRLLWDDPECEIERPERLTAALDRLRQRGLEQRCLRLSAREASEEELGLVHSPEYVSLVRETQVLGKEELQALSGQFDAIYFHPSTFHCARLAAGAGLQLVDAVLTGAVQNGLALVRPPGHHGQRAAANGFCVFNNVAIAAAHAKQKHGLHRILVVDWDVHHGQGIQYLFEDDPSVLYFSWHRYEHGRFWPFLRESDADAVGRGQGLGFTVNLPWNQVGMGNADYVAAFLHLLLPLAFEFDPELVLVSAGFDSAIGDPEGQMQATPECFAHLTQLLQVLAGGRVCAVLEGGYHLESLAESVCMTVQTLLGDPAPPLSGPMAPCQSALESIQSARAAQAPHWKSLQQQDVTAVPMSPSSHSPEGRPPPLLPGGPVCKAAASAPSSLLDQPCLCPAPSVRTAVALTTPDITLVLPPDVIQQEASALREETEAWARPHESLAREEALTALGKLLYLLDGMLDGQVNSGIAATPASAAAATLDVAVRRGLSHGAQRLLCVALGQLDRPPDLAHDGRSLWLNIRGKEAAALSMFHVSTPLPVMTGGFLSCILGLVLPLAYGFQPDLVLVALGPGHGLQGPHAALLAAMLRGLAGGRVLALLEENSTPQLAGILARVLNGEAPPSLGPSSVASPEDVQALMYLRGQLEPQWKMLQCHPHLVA
Experimental: as §2

[9] = Body weight of mice during drug administration, prostate cancer model; format: in vivo, nude mice; conditions: 50 mg/kg orally once a day; drug administration period; FIG. 5
Experimental: A prostate cancer model was established by subcutaneously transplanting PC-3 cell lines into nude mice, and the mice were divided into two groups (group 1: vehicle administration group (10% DSMO, 30% PEG400, 60% DW), group 2: 50 mg/kg Example 27 compound administration group). The drug was administered orally once a day for 12 times. To evaluate the therapeutic efficacy, tumors were […] before drug administration and on days 3, 6, 8, 10, 12, and 14 after drug administration, and tumor volumes were measured. Tumor volume (mm^3) was calculated as follows (tumor volume (mm^3)=(A×B^2)/2, where A=tumor long axis, B=tumor short axis), and the results are shown in FIG. 2.

[10] = test system: PC-3 prostate cancer cells; test: Prostate cancer cell growth inhibition, CCK-8 assay; format: cell-based, human; conditions: various concentrations; 24 hours and 48 hours; FIG. 1
Experimental: PC-3, a human-derived prostate cancer cell line, was cultured with RPMI1640 (10% fetal bovine serum, 1% Penicillin Streptomycin) culture medium at 37° C., 5% CO2 condition. All cells in the experiment were subcultured when they reached a confluency of approximately 80% to 90%, and only cells that had not passed 20 passages were used.
After culturing, 10 L CCK-8 reagent was added and the absorbance was measured after 1 hour. The absorbance was measured at 450 nm using a microplate reader [BMG Labtech (Offenburg, Germany)].

Chain of HDAC2 (Q92769 whole entry): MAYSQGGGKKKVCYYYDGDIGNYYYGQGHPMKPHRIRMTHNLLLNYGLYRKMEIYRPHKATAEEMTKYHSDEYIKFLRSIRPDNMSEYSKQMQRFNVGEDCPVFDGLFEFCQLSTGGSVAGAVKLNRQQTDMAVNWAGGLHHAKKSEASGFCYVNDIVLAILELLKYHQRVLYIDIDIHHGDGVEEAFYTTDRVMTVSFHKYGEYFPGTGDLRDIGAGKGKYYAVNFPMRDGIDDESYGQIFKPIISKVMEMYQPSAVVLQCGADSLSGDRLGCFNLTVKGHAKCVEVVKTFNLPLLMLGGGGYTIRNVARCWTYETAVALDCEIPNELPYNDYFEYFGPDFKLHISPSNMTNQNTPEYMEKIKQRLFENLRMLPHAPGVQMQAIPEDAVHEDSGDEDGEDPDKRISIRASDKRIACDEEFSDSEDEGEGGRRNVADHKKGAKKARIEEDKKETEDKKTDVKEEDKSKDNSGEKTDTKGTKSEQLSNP
Chain of HDAC3 (O15379 whole entry): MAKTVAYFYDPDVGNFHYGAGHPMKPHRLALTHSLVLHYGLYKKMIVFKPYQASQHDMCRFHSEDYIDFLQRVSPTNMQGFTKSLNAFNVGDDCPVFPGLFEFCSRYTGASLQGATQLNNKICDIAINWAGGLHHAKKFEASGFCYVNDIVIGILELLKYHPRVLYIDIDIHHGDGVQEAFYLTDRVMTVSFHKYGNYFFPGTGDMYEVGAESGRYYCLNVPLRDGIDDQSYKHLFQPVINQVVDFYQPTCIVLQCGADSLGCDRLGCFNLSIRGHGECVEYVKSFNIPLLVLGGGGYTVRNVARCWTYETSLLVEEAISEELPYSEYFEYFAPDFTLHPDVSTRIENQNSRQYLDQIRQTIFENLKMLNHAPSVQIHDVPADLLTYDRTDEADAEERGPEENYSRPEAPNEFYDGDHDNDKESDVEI
Chain of HDAC3 (Q9Y618 395-489 partner limits assumed): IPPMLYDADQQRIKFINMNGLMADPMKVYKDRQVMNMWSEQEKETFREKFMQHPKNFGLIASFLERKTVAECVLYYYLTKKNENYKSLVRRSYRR
Chain of HDAC1 (Q13547 whole entry): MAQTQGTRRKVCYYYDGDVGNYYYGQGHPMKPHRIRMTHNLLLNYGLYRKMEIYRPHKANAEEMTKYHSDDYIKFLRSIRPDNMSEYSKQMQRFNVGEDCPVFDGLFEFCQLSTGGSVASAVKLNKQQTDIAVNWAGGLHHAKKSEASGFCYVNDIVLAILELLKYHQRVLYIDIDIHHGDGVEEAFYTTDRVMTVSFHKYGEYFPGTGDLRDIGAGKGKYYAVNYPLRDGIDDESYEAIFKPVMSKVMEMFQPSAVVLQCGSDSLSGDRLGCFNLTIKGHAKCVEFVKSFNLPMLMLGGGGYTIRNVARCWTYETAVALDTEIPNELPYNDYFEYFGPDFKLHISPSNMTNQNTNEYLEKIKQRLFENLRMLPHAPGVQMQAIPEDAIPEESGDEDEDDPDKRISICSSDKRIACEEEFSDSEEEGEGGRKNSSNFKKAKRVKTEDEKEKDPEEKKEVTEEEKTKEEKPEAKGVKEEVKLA

Cc1cc2nc(C(=O)NCCc3c[nH]c4ccc(O)cc34)c(=O)n(C[C@H](O)[C@H](O)[C@H](O)CO)c2cc1C [Example 27, N-(2-(5-hydroxy-1H-indol-3-yl)ethyl)-6,7-dimethyl-3-oxo-4-((2S,3S,4R)-2,3,4,5-tetrahydroxypentyl)-3,4-dihydroquinoxaline-2-carboxamide]
remaining activity at 10 µM [1]: 73.1% | remaining activity at 10 µM [2]: 76.2% | selective inhibitory effect on HDAC8 (in words) [3]: selective and excellent inhibitory activity only against HDAC8 | body weight (in words) [4]: No rapid weight loss was observed | tumor volume (in words) ([5]; 12 times, up to day 15, p<0.005 vs vehicle, FIG. 7A): tumor growth inhibitory effect | tumor weight (in words) ([5]; tumor removed on day 15, p<0.0005 vs vehicle, FIGS. 7B and 7C): tumor weight of the vehicle group was significantly higher than that of the Example 27 compound administration group | Huh-7 cell viability (in words) [6]: concentration-dependent inhibition of cancer cell viability | remaining activity at 10 µM [7]: 91.2% | remaining activity at 10 µM [8]: 87.2% | body weight of the mice (in words) [9]: no rapid weight loss was confirmed | PC-3 cancer cell viability inhibition rate compared with PCI-34051 [10]: superior to that of PCI-34051 | PC-3 cell viability (in words) [10]: effectively reduced the viability of prostate cancer cells in a concentration- and time-dependent manner
